# Test results as given in US20260167619A2, “INDOLINE COMPOUNDS AND DERIVATIVES AS EGFR INHIBITORS” (BeOne Medicines I GmbH, priority 2020, published 2026).
# How the values were obtained:
# [1] = molecular target: T1, EGFR (aa668-1210, Invitrogen) (Homo sapiens, UniProt P00533); assay: Biochemical EGFR inhibition assay (TR-FRET), wild-type EGFR; settings: ATP at Km, 15 min pre-incubation, 60 min reaction; read-out: WT (Km ATP) IC50
# T1 construct: EGFR (aa668-1210, Invitrogen); purchased Invitrogen
# T1 sequence (P00533 668-1210): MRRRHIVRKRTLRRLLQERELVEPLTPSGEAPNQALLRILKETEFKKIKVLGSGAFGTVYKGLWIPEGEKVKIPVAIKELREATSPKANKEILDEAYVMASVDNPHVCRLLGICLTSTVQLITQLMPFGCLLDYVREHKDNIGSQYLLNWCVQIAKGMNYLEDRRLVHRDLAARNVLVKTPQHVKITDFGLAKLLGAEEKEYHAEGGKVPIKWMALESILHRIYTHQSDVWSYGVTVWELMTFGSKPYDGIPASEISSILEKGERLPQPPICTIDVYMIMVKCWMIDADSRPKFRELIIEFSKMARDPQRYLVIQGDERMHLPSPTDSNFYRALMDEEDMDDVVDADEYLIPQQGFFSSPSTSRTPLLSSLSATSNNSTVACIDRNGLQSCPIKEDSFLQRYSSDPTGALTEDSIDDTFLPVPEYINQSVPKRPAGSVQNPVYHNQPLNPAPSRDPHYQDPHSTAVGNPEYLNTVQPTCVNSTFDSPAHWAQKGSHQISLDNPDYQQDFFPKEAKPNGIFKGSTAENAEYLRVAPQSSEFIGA
# Procedure: (§1) Compounds were tested for inhibition of kinase activity against EGFR (aa668-1210, Invitrogen), EGFR(L858R_T790M_C797S) (aa695-end, Invitrogen) and EGFR(Dell9_T790M_C797S) (aa 669-1210, in house) in assays based on time-resolved fluorescence-resonance energy transfer (TR-FRET) methodology. Recombinant EGFR, EGFR(L858R_T790M_C797S) or EGFR(Dell9_T790M_C797S) was pre-incubated with the compounds at room temperature for 15 minutes in an assay buffer containing 50 mM HEPES pH7.5, 10 mM MgCl2, 2 mM DTT, 1 mM EGTA, 0.1% BSA, 0.01% Tween-20. The reactions were initiated by the addition of ATP (at the concentration of ATP Km) and substrate Biotin-Poly GT. After reaction at room temperature for 60 minutes, stop/detection solution was added. The stop/detection solution contained Eu^3+ cryptate-conjugated mouse monoclonal antibody (PT66) anti-phosphotyrosine and XL665-conjugated streptavidin in buffer containing 50 mM HEPES pH7.0, 800 mM KF, 20 mM EDTA, and 0.1% BSA. Plates were sealed and incubated at room temperature for 1 hour, and the TR-FRET signals (ratio of fluorescence emission at 665 nm over emission at 620 nm with excitation at 337 nm wavelength) were recorded on a PHERAstar FS plate reader (BMG Labtech). The residual enzyme activity in presence of increasing concentrations of compounds was calculated based on the ratio of fluorescence at 665 nm to that at 620 nm. The IC50 for each compound was derived from fitting the data to the four-parameter logistic equation by Dotmatics or Graphpad Prism software.
# (§2) These biochemical EGFR enzyme form compound dose-response assays quantify the kinase activity via phosphorylation of a tagged poly-GT substrate. The results of the assay are provided as IC50 values.
# [2] = molecular target: EGFR(Dell9_T790M_C797S) (aa 669-1210, in house) (Homo sapiens, UniProt P00533, T790M/C797S, form not given); assay: Biochemical EGFR inhibition assay (TR-FRET), Del19/T790M/C797S mutant; settings: ATP at Km, 15 min pre-incubation, 60 min reaction; read-out: Del_TM_CS (Km ATP) IC50
# Sequence of EGFR(Dell9_T790M_C797S) (aa 669-1210, in house) (P00533 with tags, fused parts or gaps DEL746-750/T790M/C797S, form open): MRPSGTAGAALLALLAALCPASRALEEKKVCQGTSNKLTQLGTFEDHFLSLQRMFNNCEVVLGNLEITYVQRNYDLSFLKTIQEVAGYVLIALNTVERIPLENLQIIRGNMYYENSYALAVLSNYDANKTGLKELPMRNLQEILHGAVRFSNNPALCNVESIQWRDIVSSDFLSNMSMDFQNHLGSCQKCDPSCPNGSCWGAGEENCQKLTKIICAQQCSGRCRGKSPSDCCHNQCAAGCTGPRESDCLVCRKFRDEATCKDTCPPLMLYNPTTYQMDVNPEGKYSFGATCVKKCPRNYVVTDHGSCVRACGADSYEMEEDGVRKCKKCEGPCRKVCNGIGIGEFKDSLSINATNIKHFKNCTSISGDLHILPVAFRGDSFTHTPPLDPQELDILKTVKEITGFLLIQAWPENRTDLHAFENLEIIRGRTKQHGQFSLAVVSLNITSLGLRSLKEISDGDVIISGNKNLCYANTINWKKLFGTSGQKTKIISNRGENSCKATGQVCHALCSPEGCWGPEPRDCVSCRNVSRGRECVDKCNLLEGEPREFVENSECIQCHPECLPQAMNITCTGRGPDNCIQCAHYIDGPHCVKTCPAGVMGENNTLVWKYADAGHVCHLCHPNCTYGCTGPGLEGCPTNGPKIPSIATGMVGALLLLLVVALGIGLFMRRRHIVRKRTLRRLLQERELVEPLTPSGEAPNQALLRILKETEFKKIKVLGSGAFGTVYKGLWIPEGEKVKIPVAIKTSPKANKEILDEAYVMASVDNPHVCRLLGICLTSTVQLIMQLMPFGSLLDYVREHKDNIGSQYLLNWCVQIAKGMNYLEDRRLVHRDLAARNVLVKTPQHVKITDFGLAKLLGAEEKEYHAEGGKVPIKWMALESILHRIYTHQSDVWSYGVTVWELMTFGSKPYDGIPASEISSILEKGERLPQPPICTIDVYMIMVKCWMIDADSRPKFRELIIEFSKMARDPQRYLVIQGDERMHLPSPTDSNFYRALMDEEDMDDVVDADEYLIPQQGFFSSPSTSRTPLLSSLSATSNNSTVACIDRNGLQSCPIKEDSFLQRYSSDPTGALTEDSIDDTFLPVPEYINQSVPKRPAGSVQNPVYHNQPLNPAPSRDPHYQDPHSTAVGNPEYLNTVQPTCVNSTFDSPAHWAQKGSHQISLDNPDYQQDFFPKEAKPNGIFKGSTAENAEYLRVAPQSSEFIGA
# Procedure: as §1, §2
# BaF3-Del_TM_CS cells = BaF3-Del_TM_CS cells (Homo sapiens, UniProt P00533, T790M/C797S, cells depend on it, form not given); assay: Cell antiproliferation assay (CellTiter-Glo), BaF3-Del_TM_CS; format: cell-based; settings: 48 h treatment, read-out: BaF3-Del_TM_CS IC50
# Sequence of BaF3-Del_TM_CS cells (P00533 with tags, fused parts or gaps DEL746-750/T790M/C797S, form open): as above
# Procedure: (§3) BaF3 cells are treated with compounds diluted in 0.2% DMSO, dilution is done according to the following protocol: (1) make 500× stock solution in DMSO from 5 mM by 5-fold dilution, total 8 doses were included; (2) make 10× solution in cell culture medium by transferring 2 μl 500× stock solution into 98 μl medium; (3) 10 μl of 10× solution is added to cells and incubate for 48 h.
# (§4) After 48 h treatment, add 30 μl CellTiter-Glo reagent[CellTiter-Glo® 2.0, (Promega, Cat #G9242)] to each well; seal the plate and incubate 2 min at room temperature on a plate shaker; Allow the plate to incubate at room temperature for 10 minutes to stabilize the luminescent signal. Record luminescence on BMG PheraStar with luminescence protocol.
# (§5) The IC50 value of a compound can be obtained by fitting the following equation
# (§6) Wherein, X and Y are known values, and IC50, Hillslope, Top and Bottom are the parameters obtained by fitting with software. Y is the inhibition percentage (calculated from the equation), X is the concentration of the compound; IC50 is the concentration of the compound when the 50% inhibition is reached. The smaller the IC50 value is, the stronger the inhibitory ability of the compound is. Vice versa, the higher the IC50 value is, the weaker the ability the inhibitory ability of the compound is; Hillslope represents the slope of the fitted curve, generally around 1 *; Bottom represents the minimum value of the curve obtained by data fitting, which is generally 0%±20%; Top represents the maximum value of the curve obtained by data fitting, which is generally 100%±20%. The experimental data were fitted by calculating and analyzing with Dotmatics data analysis software.
# [3] = molecular target: T2, EGFR(L858R_T790M_C797S) (aa695-end, Invitrogen) (Homo sapiens, UniProt P00533, C797S/L858R/T790M); assay: Biochemical EGFR inhibition assay (TR-FRET), L858R/T790M/C797S mutant; settings: ATP at Km, 15 min pre-incubation, 60 min reaction; read-out: LR_TM_CS (Km ATP) IC50
# T2 construct: purchased Invitrogen
# T2 sequence (P00533 695-1210 T790M/C797S/L858R): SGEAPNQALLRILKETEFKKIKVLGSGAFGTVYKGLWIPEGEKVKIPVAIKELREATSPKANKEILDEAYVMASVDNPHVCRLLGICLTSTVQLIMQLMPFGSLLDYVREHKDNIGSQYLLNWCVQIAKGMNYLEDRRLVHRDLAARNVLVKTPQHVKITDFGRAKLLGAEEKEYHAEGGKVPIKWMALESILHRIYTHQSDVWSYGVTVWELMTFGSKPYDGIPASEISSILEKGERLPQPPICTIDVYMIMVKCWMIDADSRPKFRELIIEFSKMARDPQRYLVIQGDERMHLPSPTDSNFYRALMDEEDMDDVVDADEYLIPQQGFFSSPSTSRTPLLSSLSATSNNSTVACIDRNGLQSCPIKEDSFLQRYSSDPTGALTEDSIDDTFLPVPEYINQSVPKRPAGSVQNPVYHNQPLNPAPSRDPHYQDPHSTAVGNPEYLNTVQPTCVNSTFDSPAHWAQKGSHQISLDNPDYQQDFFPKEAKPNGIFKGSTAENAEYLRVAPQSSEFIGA
# Procedure: as §1, §2
# BaF3-LR_TM_CS cells = BaF3-LR_TM_CS cells (Homo sapiens, UniProt P00533, T790M/C797S/L858R, cells depend on it); assay: Cell antiproliferation assay (CellTiter-Glo), BaF3-LR_TM_CS; format: cell-based; settings: 48 h treatment, read-out: BaF3-LR_TM_CS IC50
# Procedure: as §3, §4, §5, §6
# BaF3-WT cells = BaF3-WT cells (Homo sapiens, UniProt P00533); assay: Cell antiproliferation assay (CellTiter-Glo), BaF3-WT; format: cell-based; settings: 48 h treatment, read-out: BaF3-WT IC50
# Sequence of BaF3-WT cells (P00533 whole entry, change not shown): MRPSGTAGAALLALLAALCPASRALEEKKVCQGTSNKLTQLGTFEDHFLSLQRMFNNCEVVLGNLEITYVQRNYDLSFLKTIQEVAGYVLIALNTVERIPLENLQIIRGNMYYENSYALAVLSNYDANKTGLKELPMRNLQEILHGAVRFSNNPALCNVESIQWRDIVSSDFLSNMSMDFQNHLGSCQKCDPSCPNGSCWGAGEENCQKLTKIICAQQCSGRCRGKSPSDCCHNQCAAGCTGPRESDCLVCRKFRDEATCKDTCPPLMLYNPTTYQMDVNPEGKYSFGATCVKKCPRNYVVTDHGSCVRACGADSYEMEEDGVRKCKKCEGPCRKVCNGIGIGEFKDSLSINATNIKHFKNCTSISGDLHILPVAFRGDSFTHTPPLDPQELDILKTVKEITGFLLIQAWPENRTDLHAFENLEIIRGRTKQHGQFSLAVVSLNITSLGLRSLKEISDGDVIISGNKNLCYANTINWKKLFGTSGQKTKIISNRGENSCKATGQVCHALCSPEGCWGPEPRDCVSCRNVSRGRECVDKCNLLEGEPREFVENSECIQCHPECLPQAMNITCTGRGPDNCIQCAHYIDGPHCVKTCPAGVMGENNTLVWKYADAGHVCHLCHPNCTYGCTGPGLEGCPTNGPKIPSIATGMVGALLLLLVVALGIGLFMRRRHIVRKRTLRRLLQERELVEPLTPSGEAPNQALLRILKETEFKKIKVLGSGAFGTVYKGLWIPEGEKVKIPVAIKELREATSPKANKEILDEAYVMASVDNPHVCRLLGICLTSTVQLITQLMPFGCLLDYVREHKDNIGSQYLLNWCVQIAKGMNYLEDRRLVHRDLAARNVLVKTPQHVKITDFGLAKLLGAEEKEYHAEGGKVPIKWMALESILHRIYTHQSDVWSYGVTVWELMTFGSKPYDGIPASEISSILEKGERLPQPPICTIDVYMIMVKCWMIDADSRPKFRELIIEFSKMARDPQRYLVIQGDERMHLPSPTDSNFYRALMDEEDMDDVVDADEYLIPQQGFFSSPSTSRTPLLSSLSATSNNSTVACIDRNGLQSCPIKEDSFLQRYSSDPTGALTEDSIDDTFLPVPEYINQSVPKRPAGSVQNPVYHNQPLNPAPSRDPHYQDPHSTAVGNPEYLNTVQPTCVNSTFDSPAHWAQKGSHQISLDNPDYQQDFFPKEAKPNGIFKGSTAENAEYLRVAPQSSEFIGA
# Procedure: as §3, §4, §5, §6
Structure (SMILES),IC50 [1],IC50 [2],GI50 (BaF3-Del_TM_CS cells),IC50 [3],GI50 (BaF3-LR_TM_CS cells),GI50 (BaF3-WT cells)
"CCc1cc(Nc2ncc(Cl)c(Nc3cccc4c3N(S(C)(=O)=O)CC4)n2)c(OC)cc1N1CCC(N2CCN(C)CC2)CC1 [Example 41, 5-chloro-N^2-(5-ethyl-2-methoxy-4-(4-(4-methylpiperazin-1-yl)piperidin-1-yl)phenyl)-N^4-(1-(methylsulfonyl)indolin-7yl)pyrimidine-2,4-diamine]",0.81 nM,0.51 nM,6.06 nM,0.67 nM,15.4 nM,610 nM
"COc1cc(N2CCC(N(C)C)CC2)ccc1Nc1ncc(Cl)c(Nc2cccc3c2N(S(C)(=O)=O)CC3)n1 [Example 36, 5-chloro-N^2-(4-(4-(dimethylamino)piperidin-1-yl)-2-methoxyphenyl)-N^4-(1-(methylsulfonyl)indolin-7-yl)pyrimidine-2,4-diamine]",0.56 nM,0.22 nM,10 nM,0.41 nM,25.9 nM,414 nM
"CCc1cc(Nc2nc(Nc3cccc4c3N(S(C)(=O)=O)CC4)c3cc[nH]c3n2)c(OC)cc1N1CCC(N2CCN(C)CC2)CC1 [Example 94, N^2-(5-ethyl-2-methoxy-4-(4-(4-methylpiperazin-1-yl)piperidin-1-yl)phenyl)-N^4-(1-(methylsulfonyl)indolin-7-yl)-7H-pyrrolo[2,3-d]pyrimidine-2,4-diamine]",29 nM,1.5 nM,10.9 nM,1.1 nM,84.8 nM,640 nM
"CN1CCN(C2CCN(c3ccc(Nc4ncc(Cl)c(Nc5cccc6c5N(S(C)(=O)=O)CC6)n4)c4c3CCO4)CC2)CC1 [Example 49, 5-chloro-N^2-(4-(4-(4-methylpiperazin-1-yl)piperidin-1-yl)-2,3-dihydrobenzofuran-7-yl)-N^4-(1-(methylsulfonyl)indolin-7-yl)pyrimidine-2,4-diamine]",3.8 nM,0.45 nM,19.3 nM,0.95 nM,79.3 nM,1510 nM
"COc1cc(N2CCC(N3CCN(C)CC3)CC2)ccc1Nc1ncc(Cl)c(Nc2cccc3c2N(S(C)(=O)=O)CC3C)n1 (stereo not drawn) [Example 23, 5-chloro-N^2-(2-methoxy-4-(4-(4-methylpiperazin-1-yl)piperidin-1-yl)phenyl)-N^4-(3-methyl-1-(methylsulfonyl)indolin-7-yl)pyrimidine-2,4-diamine]",1.1 nM,0.54 nM,13.3 nM,0.54 nM,38.4 nM,453 nM
"CC1Cc2c(N3CCN(C)CC3)ccc(Nc3ncc(Br)c(Nc4cccc5c4N(S(C)(=O)=O)CC5)n3)c2O1 (stereo not drawn) [Example 62, 5-bromo-N^2-(2-methyl-4-(4-methylpiperazin-1-yl)-2,3-dihydrobenzofuran-7-yl)-N^4-(1-(methylsulfonyl)indolin-7-yl)pyrimidine-2,4-diamine]",11.6 nM,0.42 nM,–,0.68 nM,–,–
"CN(C)C1CCN(c2ccc(Nc3ncc(Br)c(Nc4cccc5c4N(S(C)(=O)=O)CC5)n3)c3c2CCC3)CC1 [Example 53, 5-bromo-N^2-(7-(4-(dimethylamino)piperidin-1-yl)-2,3-dihydro-1H-inden-4-yl)-N^4-(1-(methylsulfonyl)indolin-7-yl)pyrimidine-2,4-diamine]",6.5 nM,0.28 nM,–,0.32 nM,–,–
"COc1cc(N2CCC(N3CCN(C)C4(CC4)C3)CC2)ccc1Nc1ncc(Br)c(Nc2cccc3c2N(S(C)(=O)=O)CC3)n1 [Example 192, 5-bromo-N2-(2-methoxy-4-(4-(4-methyl-4,7-diazaspiro[2.5]octan-7-yl)piperidin-1-yl)phenyl)-N4-(1-(methylsulfonyl)indolin-7-yl)pyrimidine-2,4-diamine]",0.7 nM,0.2 nM,–,0.1 nM,–,–
"COc1cc(-c2cnn(CCN3CCN(C)CC3)c2)ccc1Nc1nc(Nc2cccc3c2N(S(C)(=O)=O)CC3)c2cc[nH]c2n1 [Example 115, N^2-(2-methoxy-4-(1-(2-(4-methylpiperazin-1-yl)ethyl)-1H-pyrazol-4-yl)phenyl)-N^4-(1-(methylsulfonyl)indolin-7-yl)-7H-pyrrolo[2,3-d]pyrimidine-2,4-diamine]",2490 nM,42.8 nM,–,20.7 nM,–,–
"CN1CCN(C2CCN(c3c(F)cc(Nc4ncc(Br)c(Nc5cccc6c5N(S(C)(=O)=O)CC6)n4)c4c3CCO4)CC2)CC1 [Example 60, 5-bromo-N^2-(5-fluoro-4-(4-(4-methylpiperazin-1-yl)piperidin-1-yl)-2,3-dihydrobenzofuran-7-yl)-N^4-(1-(methylsulfonyl)indolin-7-yl)pyrimidine-2,4-diamine]",0.5 nM,0.35 nM,–,0.3 nM,–,–
"COc1cc(Nc2nc(Nc3cccc4c3N(S(C)(=O)=O)CC4)c3cc[nH]c3n2)ccc1N1CCC(N2CCN(C)CC2)CC1 [Example 81, N^2-(3-methoxy-4-(4-(4-methylpiperazin-1-yl)piperidin-1-yl)phenyl)-N^4-(1-(methylsulfonyl)indolin-7-yl)-7H-pyrrolo[2,3-d]pyrimidine-2,4-diamine]",82.7 nM,0.76 nM,–,0.44 nM,–,–
"COc1cc(N2CCC3(CC2)CN(C)C3)c(C)cc1Nc1ncc(Br)c(Nc2cccc3c2N(S(C)(=O)=O)CC3)n1 [Example 45, 5-bromo-N^2-(2-methoxy-5-methyl-4-(2-methyl-2,7-diazaspiro[3.5]nonan-7-yl)phenyl)-N^4-(1-(methylsulfonyl)indolin-7-yl)pyrimidine-2,4-diamine]",1 nM,0.3 nM,–,0.2 nM,–,–
"COc1cc(N2CCC(N3CCN(C)CC3)CC2)ccc1Nc1ncc(Cl)c(Nc2cccc3c2N(S(C)(=O)=O)CC32CC2)n1 [Example 187, 5-chloro-N2-(2-methoxy-4-(4-(4-methylpiperazin-1-yl)piperidin-1-yl)phenyl)-N4-(1′-(methylsulfonyl)spiro[cyclopropane-1,3′-indolin]-7′-yl)pyrimidine-2,4-diamine]",0.8 nM,0.3 nM,–,0.3 nM,–,–
"CN(C)C1CCN(c2c(F)cc(Nc3ncc(Br)c(Nc4cccc5c4N(S(C)(=O)=O)CC5)n3)c3c2CCO3)CC1 [Example 59, 5-bromo-N^2-(4-(4-(dimethylamino)piperidin-1-yl)-5-fluoro-2,3-dihydrobenzofuran-7-yl)-N^4-(1-(methylsulfonyl)indolin-7-yl)pyrimidine-2,4-diamine]",1.1 nM,0.24 nM,–,0.2 nM,–,–
"CN1CCN(C2CCN(c3ccc(Nc4nc(Nc5cccc6c5N(S(C)(=O)=O)CC6)c5cc[nH]c5n4)cn3)CC2)CC1 [Example 184, N2-(6-(4-(4-methylpiperazin-1-yl)piperidin-1-yl)pyridin-3-yl)-N4-(1-(methylsulfonyl)indolin-7-yl)-7H-pyrrolo[2,3-d]pyrimidine-2,4-diamine]",427 nM,2.5 nM,–,1.7 nM,–,–
